Results on 17 compounds are retold here after patent US20060281771A1, “SYNERGISTIC MODULATION OF FLT3 KINASE USING AMINOQUINOLINE AND AMINOQUINAZOLINE KINASE MODULATORS” (priority 2005, published 2006).

By IC50 is commonly meant the concentration that gives 50% inhibition. Low readings indicate higher potency, high ones lower potency.

In one assay the test system is MV4-11 cells. Briefly: Inhibition of MV4-11 cell proliferation (CellTiterGlo, 72 h). It is filed as cell-based. To be noted: Homo sapiens; 72 h growth inhibition. On the procedure:
To assess the cellular potency of the FLT3 inhibitors of Formula I′, FLT3 specific growth inhibition was measured in the leukemic cell line MV4-11 (ATCC Number: CRL-9591). […] MV4-11 cells cannot grow and survive without active FLT3ITD.
To measure proliferation inhibition by test compounds, the luciferase based CellTiterGlo reagent (Promega), which quantifies total cell number based on total cellular ATP concentration, was used. Cells are plated at 10,000 cells per well in 100 ul of in RPMI media containing penn/strep, 10% FBS and 1 ng/ml GM-CSF or 1 ng/ml IL-3 for MV4-11 and Baf3 cells respectively.
Compound dilutions or 0.1% DMSO (vehicle control) are added to cells and the cells are allowed to grow for 72 hours at standard cell growth conditions (37° C., 5% CO2). For activity measurements in MV4-11 cells grown in 50% plasma, cells were plated at 10,000 cells per well in a 1:1 mixture of growth media and human plasma (final volume of 100 μL). To measure total cell growth an equal volume of CellTiterGlo reagent was added to each well, according to the manufacturer's instructions, and luminescence was quantified. Total cell growth was quantified as the difference in luminescent counts (relative light units, RLU) of cell number at Day 0 compared to total cell number at Day 3 (72 hours of growth and/or compound treatment). One hundred percent inhibition of growth is defined as an RLU equivalent to the Day 0 reading. Zero percent inhibition was defined as the RLU signal for the DMSO vehicle control at Day 3 of growth. All data points are an average of triplicate samples. […] Inhibition and IC50 data analysis was done with GraphPad Prism using a non-linear regression fit with a multiparamater, sigmoidal dose-response (variable slope) equation.
MV4-11 cells express the FLT3 internal tandem duplication mutation, and thus are entirely dependent upon FLT3 activity for growth. […] In contrast, the Baf3 cell proliferation is driven by the cytokine IL-3 and thus are used as a non-specific toxicity control for test compounds.

The target in assay [1] is T1, wild-type FLT3 phosphorylation in Baf3 FLT3 cells (Homo sapiens, UniProt P36888).
T1 construct: host or cells: Baf3 (murine B cell lymphoma line)
T1 sequence (P36888 27-993): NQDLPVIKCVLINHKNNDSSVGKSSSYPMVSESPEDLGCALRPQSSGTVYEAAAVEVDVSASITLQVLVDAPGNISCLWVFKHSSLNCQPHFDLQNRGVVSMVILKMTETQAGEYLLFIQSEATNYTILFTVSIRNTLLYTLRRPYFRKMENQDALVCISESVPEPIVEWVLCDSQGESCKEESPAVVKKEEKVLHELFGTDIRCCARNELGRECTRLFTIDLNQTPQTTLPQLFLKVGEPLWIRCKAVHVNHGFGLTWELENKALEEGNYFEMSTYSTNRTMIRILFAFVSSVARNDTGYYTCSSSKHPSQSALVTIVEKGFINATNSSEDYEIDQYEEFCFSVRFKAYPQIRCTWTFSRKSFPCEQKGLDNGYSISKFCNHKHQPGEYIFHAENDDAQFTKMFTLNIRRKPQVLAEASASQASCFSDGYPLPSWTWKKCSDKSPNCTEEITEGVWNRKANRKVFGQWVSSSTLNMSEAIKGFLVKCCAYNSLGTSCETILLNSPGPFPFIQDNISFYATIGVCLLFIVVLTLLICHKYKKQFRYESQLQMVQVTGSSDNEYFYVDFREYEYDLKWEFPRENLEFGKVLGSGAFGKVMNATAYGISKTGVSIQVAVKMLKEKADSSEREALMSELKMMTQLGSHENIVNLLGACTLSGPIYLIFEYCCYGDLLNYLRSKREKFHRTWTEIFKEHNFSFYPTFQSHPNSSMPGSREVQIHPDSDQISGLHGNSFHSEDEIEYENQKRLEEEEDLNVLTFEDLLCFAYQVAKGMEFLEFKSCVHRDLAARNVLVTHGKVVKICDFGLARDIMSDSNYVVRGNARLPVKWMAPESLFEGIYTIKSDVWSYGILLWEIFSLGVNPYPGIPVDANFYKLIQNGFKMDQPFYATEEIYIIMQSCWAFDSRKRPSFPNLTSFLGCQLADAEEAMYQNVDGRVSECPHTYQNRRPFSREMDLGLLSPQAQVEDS
Briefly: Cell-based FLT3 receptor ELISA. The note with it: FLT ligand-induced FLT3 phosphorylation. On the procedure:
Specific cellular inhibition of FLT ligand-induced wild-type FLT3 phosphorylation was measured in the following manner: Baf3 FLT3 cells overexpressing the FLT3 receptor were obtained from Dr. Michael Heinrich (Oregon Health and Sciences University). The Baf3 FLT3 cell lines were created by stable transfection of parental Baf3 cells (a murine B cell lymphoma line dependent on the cytokine IL-3 for growth) with wild-type FLT3. Cells were selected for their ability to grow in the absence of IL-3 and in the presence of FLT3 ligand.
Baf3 cells were maintained in RPMI 1640 with 10% FBS, penn/strep and 10 ng/ml FLT ligand at 37° C., 5% CO2. To measure direct inhibition of the wild-type FLT3 receptor activity and phosphorylation a sandwich ELISA method was developed similar to those developed for other RTKs (see Sadick, M D, Sliwkowski, M X, Nuijens, A, Bald, L, Chiang, N, Lofgren, J A, Wong W L T. Analysis of Heregulin-Induced ErbB2 Phosphorylation with a High-Throughput Kinase Receptor Activation Enzyme-Linked Immunsorbent Assay, Analytical Biochemistry. 1996; 235:207-214 and Baumann C A, Zeng L, Donatelli R R, Maroney A C. Development of a quantitative, high-throughput cell-based enzyme-linked immunosorbent assay for detection of colony-stimulating factor-1 receptor tyrosine kinase inhibitors. J Biochem Biophys Methods. 2004; 60:69-79.). 200 μL of Baf3FLT3 cells (1×10^6/mL) were plated in 96 well dishes in RPMI 1640 with 0.5% serum and 0.01 ng/mL IL-3 for 16 hours prior to 1 hour compound or DMSO vehicle incubation. Cells were treated with 100 ng/mL Flt ligand (R&D Systems Cat# 308-FK) for 10 min. at 37° C. Cells were pelleted, washed and lysed in 100 ul lysis buffer (50 mM Hepes, 150 mM NaCl, 10% Glycerol, 1% Triton-X-100, 10 mM NaF, 1 mM EDTA, 1.5 mM MgCl2, 10 mM NaPyrophosphate) supplemented with phosphatase (Sigma Cat# P2850) and protease inhibitors (Sigma Cat #P8340). Lysates were cleared by centrifugation at 1000×g for 5 minutes at 4° C. Cell lysates were transferred to white wall 96 well microtiter (Costar #9018) plates coated with 50 ng/well anti-FLT3 antibody (Santa Cruz Cat# sc-480) and blocked with SeaBlock reagent (Pierce Cat#37527). Lysates were incubated at 4° C. for 2 hours. Plates were washed 3× with 200 ul/well PBS/0.1% Triton-X-100. Plates were then incubated with 1:8000 dilution of HRP-conjugated anti-phosphotyrosine antibody (Clone 4G10, Upstate Biotechnology Cat#16-105) for 1 hour at room temperature. Plates were washed 3× with 200 ul/well PBS/0.1% Triton-X-100. Signal detection with Super Signal Pico reagent (Pierce Cat#37070) was done according to manufacturer's instruction with a Berthold microplate luminometer. All data points are an average of triplicate samples. […] Inhibition and IC50 data analysis was done with GraphPad Prism using a non-linear regression fit with a multiparamater, sigmoidal dose-response (variable slope) equation.

Regarding `COc1cc2ncnc(N3CCC(NC(=O)Nc4ccc(OC(C)C)cc4)CC3)c2cc1OC` [Compound 58, 1-[1-(6,7-Dimethoxy-quinazolin-4-yl)-piperidin-4-yl]-3-(4-isopropoxy-phenyl)-urea], the IC50 in the assay on MV4-11 cells was determined as 7 nM; in assay [1], 180 nM.

For `COc1cc2ncnc(N3CCC(NC(=O)Nc4ccc(N5CCOCC5)cc4)CC3)c2cc1OC` [Compound 59, 1-[1-(6,7-Dimethoxy-quinazolin-4-yl)-piperidin-4-yl]-3-(4-morpholin-4-yl-phenyl)-urea], the results for the IC50 (in the assay with MV4-11 cells; in assay [1]) were 410 nM and 43 nM, respectively.

As for `COc1cc2ncnc(N3CCC(NC(=O)Nc4ccc(N5CCCC5)cc4)CC3)c2cc1OC` [Compound 60, 1-[1-(6,7-Dimethoxy-quinazolin-4-yl)-piperidin-4-yl]-3-(4-pyrrolidin-1-yl-phenyl)-urea], the IC50 in the assay on MV4-11 cells came to 528 nM; in assay [1], 18 nM.

`COc1cc2ncnc(N3CCC(NC(=O)Nc4ccc(N(C)C)cc4)CC3)c2cc1OC` [Compound 62, 1-[1-(6,7-Dimethoxy-quinazolin-4-yl)-piperidin-4-yl]-3-(4-dimethylamino-phenyl)-urea]: the IC50 was 941 nM in the assay with MV4-11 cells and 16 nM in assay [1].

Turning to `CC(C)c1ccc(NC(=O)NC2CCN(c3ncnc4ccccc34)CC2)cc1` [Compound 63, 1-(4-Isopropyl-phenyl)-3-(1-quinazolin-4-yl-piperidin-4-yl)-urea], the figures for the IC50 (in the assay with MV4-11 cells; in assay [1]) were 502 nM and 20 nM, respectively.

Regarding `COc1ccc2ncnc(N3CCC(NC(=O)Nc4ccc(C(C)C)cc4)CC3)c2c1` [Compound 64, 1-(4-Isopropyl-phenyl)-3-[1-(6-methoxy-quinazolin-4-yl)-piperidin-4-yl]-urea], the concentration for half-maximal inhibition (IC50) in the assay with MV4-11 cells is 16 nM; in assay [1] it was 11 nM.

`COc1ccc2c(N3CCC(NC(=O)Nc4ccc(C(C)C)cc4)CC3)ncnc2c1` [Compound 65, 1-(4-Isopropyl-phenyl)-3-[1-(7-methoxy-quinazolin-4-yl)-piperidin-4-yl]-urea]: the IC50 with MV4-11 cells stood at 321 nM; in assay [1], 178 nM.

As to `COc1cc2ncnc(N3CCC(NC(=O)Nc4ccc(C(C)C)cc4)CC3)c2cc1OC` [Compound 66, 1-[1-(6,7-Dimethoxy-quinazolin-4-yl)-piperidin-4-yl]-3-(4-isopropyl-phenyl)-urea], the IC50 (in the assay with MV4-11 cells; in assay [1]) was 1 nM each time.

Turning to `COc1cc2ncnc(N3CCC(NC(=O)Nc4ccc(OC5CCCC5)cc4)CC3)c2cc1OC` [Compound 67, 1-(4-Cyclopentyloxy-phenyl)-3-[1-(6,7-dimethoxy-quinazolin-4-yl)-piperidin-4-yl]-urea], the IC50 came to 470 nM in the assay on MV4-11 cells and 1400 nM in assay [1].

As to `COc1cc2ncnc(N3CCC(NC(=O)Nc4ccc(N5CCCC5)nc4)CC3)c2cc1OC` [Compound 68, 1-[1-(6,7-Dimethoxy-quinazolin-4-yl)-piperidin-4-yl]-3-(6-pyrrolidin-1-yl-pyridin-3-yl)-urea], the results for the concentration for half-maximal inhibition (IC50) (with MV4-11 cells; in assay [1]) were 134 nM and 16 nM, respectively.

In the case of `CC(C)c1ccc(NC(=O)NC2CCN(c3ncnc4cc(F)ccc34)C2)cc1` (stereo not shown) [Compound 69, 1-[1-(7-Fluoro-quinazolin-4-yl)-pyrrolidin-3-yl]-3-(4-isopropyl-phenyl)-urea], the IC50 in the assay on MV4-11 cells is 128 nM; in assay [1], below 1 nM.

As to `CC(C)c1ccc(NC(=O)NC2CCN(c3ncnc4cc(OCCN5CCCC5=O)ccc34)C2)cc1` (stereo not shown) [Compound 70, 1-(4-Isopropyl-phenyl)-3-(1-{7-[2-(2-oxo-pyrrolidin-1-yl)-ethoxy]-quinazolin-4-yl}-pyrrolidin-3-yl)-urea], the results for the IC50 (in the assay on MV4-11 cells; in assay [1]) were 21 nM and 80 nM, respectively.

As for `COCCOc1ccc2c(N3CCC(NC(=O)Nc4ccc(C(C)C)cc4)C3)ncnc2c1` (stereo not shown) [Compound 71, 1-(4-Isopropyl-phenyl)-3-{1-[7-(2-methoxy-ethoxy)-quinazolin-4-yl]-pyrrolidin-3-yl}-urea], the IC50 (with MV4-11 cells; in assay [1]) was 1 nM in each case.

In the case of `CC(C)c1ccc(NC(=O)NC2CCN(c3ncnc4cc(F)ccc34)CC2)cc1` [Compound 72, 1-[1-(7-Fluoro-quinazolin-4-yl)-piperidin-4-yl]-3-(4-isopropyl-phenyl)-urea], the figures for the IC50 (in the assay with MV4-11 cells; in assay [1]) were 245 nM and 30 nM, respectively.

As to `COCCOc1ccc2c(N3CCC(NC(=O)Nc4ccc(C(C)C)cc4)CC3)ncnc2c1` [Compound 73, 1-(4-Isopropyl-phenyl)-3-{1-[7-(2-methoxy-ethoxy)-quinazolin-4-yl]-piperidin-4-yl}-urea], the IC50 was found to be 208 nM in the assay on MV4-11 cells and 109 nM in assay [1].

As for `CC(C)c1ccc(NC(=O)NC2CCN(c3ncnc4cc(OCCN5CCCC5=O)ccc34)CC2)cc1` [Compound 74, 1-(4-Isopropyl-phenyl)-3-(1-{7-[2-(2-oxo-pyrrolidin-1-yl)-ethoxy]-quinazolin-4-yl}-piperidin-4-yl)-urea], the IC50 worked out at 177 nM in the assay on MV4-11 cells and 4 nM in assay [1].

As to `CC(C)c1ccc(NC(=O)NC2CCN(c3ncnc4cc(OCCCN5CCN(C)CC5)ccc34)CC2)cc1` [Compound 75, 1-(4-Isopropyl-phenyl)-3-(1-{7-[3-(4-methyl-piperazin-1-yl)-propoxy]-quinazolin-4-yl}-piperidin-4-yl)-urea], the IC50 (in the assay on MV4-11 cells; in assay [1]) was 1 nM throughout.
